Converted amounts (≈) assume the structure as drawn.
Tests used:
Pasteurella multocida = assay: minimum inhibitory concentration (MIC)
Method: (§1)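 Broth microdilution MIC (Sensititre BOPO7F bovine plate, CLSI methods) of 19 antimicrobials against field isolates of P. multocida, M. haemolytica, H. somni (deep nasopharyngeal swabs) and E. coli, Enterococcus spp. (rectal swabs) from weaned dairy heifers. Incubation 16-24 h at 35 C. MIC is the lowest concentration preventing visible growth. Values with <= or > lie at the tested range limits. Trimethoprim-sulfamethoxazole is given as the trimethoprim component of a 1:19 mixture.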

Enterococcus spp. = assay: minimum inhibitory concentration (MIC)
Method: as §1

CN[C@@H]1[C@H](O)[C@H](NC)[C@H]2O[C@@]3(O)C(=O)C[C@@H](C)O[C@H]3O[C@@H]2[C@H]1O [Spectinomycin]
minimum inhibitory concentration [µg/mL]
Details	Enterococcus spp.	Pasteurella multocida
isolate (source animal id): 2	64 (≈ 193 µM)	–
isolate (source animal id): 10	–	32 (≈ 96.3 µM)
isolate (source animal id): 11	–	32 (≈ 96.3 µM)
isolate (source animal id): 12	–	32 (≈ 96.3 µM)
isolate (source animal id): 19	–	32 (≈ 96.3 µM)
isolate (source animal id): 23	–	32 (≈ 96.3 µM)
isolate (source animal id): 26	–	32 (≈ 96.3 µM)
isolate (source animal id): 35	> 64	–
isolate (source animal id): 42	64 (≈ 193 µM)	–
isolate (source animal id): 44	64 (≈ 193 µM)	–
isolate (source animal id): 79	64 (≈ 193 µM)	–
isolate (source animal id): 88	32 (≈ 96.3 µM)	–
isolate (source animal id): 91	32 (≈ 96.3 µM)	–
isolate (source animal id): 92	16 (≈ 48.1 µM)	–
isolate (source animal id): 98	–	32 (≈ 96.3 µM)
isolate (source animal id): 104	–	≤ 8
isolate (source animal id): 111	32 (≈ 96.3 µM)	–
isolate (source animal id): 115	–	> 64
isolate (source animal id): 117	–	32 (≈ 96.3 µM)
isolate (source animal id): 118	–	32 (≈ 96.3 µM)
isolate (source animal id): 121	–	> 64
isolate (source animal id): 122	> 64	–
isolate (source animal id): 123	64 (≈ 193 µM)	–
isolate (source animal id): 124	–	32 (≈ 96.3 µM)
isolate (source animal id): 125	–	32 (≈ 96.3 µM)
isolate (source animal id): 128	–	> 64
isolate (source animal id): 131	–	> 64
isolate (source animal id): 133	64 (≈ 193 µM)	–
isolate (source animal id): 135	–	> 64
isolate (source animal id): 136	–	> 64
isolate (source animal id): 140	–	16 (≈ 48.1 µM)
isolate (source animal id): 144	–	32 (≈ 96.3 µM)
isolate (source animal id): 146	–	32 (≈ 96.3 µM)
isolate (source animal id): 150	–	> 64
isolate (source animal id): 151	–	> 64
isolate (source animal id): 153	–	16 (≈ 48.1 µM)
isolate (source animal id): 155	–	32 (≈ 96.3 µM)
isolate (source animal id): 157	–	16 (≈ 48.1 µM)
isolate (source animal id): 158	64 (≈ 193 µM)	–
isolate (source animal id): 160	–	> 64
isolate (source animal id): 164	–	> 64
isolate (source animal id): 165	–	> 64
isolate (source animal id): 167	–	> 64
isolate (source animal id): 168	64 (≈ 193 µM)	32 (≈ 96.3 µM)
isolate (source animal id): 169	64 (≈ 193 µM)	32 (≈ 96.3 µM)
isolate (source animal id): 170	–	32 (≈ 96.3 µM)
isolate (source animal id): 171	64 (≈ 193 µM)	32 (≈ 96.3 µM)
isolate (source animal id): 172	–	> 64
isolate (source animal id): 173	–	32 (≈ 96.3 µM)
isolate (source animal id): 174	–	> 64
isolate (source animal id): 175	64 (≈ 193 µM)	> 64
isolate (source animal id): 176	–	> 64
isolate (source animal id): 177	64 (≈ 193 µM)	> 64
isolate (source animal id): 178	–	> 64
isolate (source animal id): 179	–	32 (≈ 96.3 µM)
isolate (source animal id): 181	64 (≈ 193 µM)	–
isolate (source animal id): 182	64 (≈ 193 µM)	> 64
isolate (source animal id): 183	64 (≈ 193 µM)	–
isolate (source animal id): 187	64 (≈ 193 µM)	–
isolate (source animal id): 190	64 (≈ 193 µM)	–
isolate (source animal id): 192	–	> 64
isolate (source animal id): 193	–	> 64
isolate (source animal id): 194	64 (≈ 193 µM)	–
isolate (source animal id): 195	64 (≈ 193 µM)	> 64
isolate (source animal id): 196	–	> 64
isolate (source animal id): 197	64 (≈ 193 µM)	> 64
isolate (source animal id): 198	–	32 (≈ 96.3 µM)
isolate (source animal id): 199	–	32 (≈ 96.3 µM)
isolate (source animal id): 200	–	32 (≈ 96.3 µM)
isolate (source animal id): 201	–	> 64
isolate (source animal id): 203	–	> 64
isolate (source animal id): 204	–	> 64
isolate (source animal id): 205	–	32 (≈ 96.3 µM)
isolate (source animal id): 206	–	> 64
isolate (source animal id): 207	–	> 64
isolate (source animal id): 208	–	32 (≈ 96.3 µM)
isolate (source animal id): 209	–	> 64
isolate (source animal id): 210	–	32 (≈ 96.3 µM)
isolate (source animal id): 211	64 (≈ 193 µM)	–
isolate (source animal id): 213	–	32 (≈ 96.3 µM)
isolate (source animal id): 214	64 (≈ 193 µM)	–
isolate (source animal id): 216	–	> 64
isolate (source animal id): 222	64 (≈ 193 µM)	–
isolate (source animal id): 223	64 (≈ 193 µM)	32 (≈ 96.3 µM)
isolate (source animal id): 227	–	> 64
isolate (source animal id): 228	64 (≈ 193 µM)	–
isolate (source animal id): 229	–	32 (≈ 96.3 µM)
isolate (source animal id): 230	64 (≈ 193 µM)	–
isolate (source animal id): 233	–	32 (≈ 96.3 µM)
isolate (source animal id): 234	–	32 (≈ 96.3 µM)
isolate (source animal id): 235	64 (≈ 193 µM)	–
isolate (source animal id): 236	64 (≈ 193 µM)	–
isolate (source animal id): 237	–	32 (≈ 96.3 µM)
isolate (source animal id): 239	64 (≈ 193 µM)	–
isolate (source animal id): 241	64 (≈ 193 µM)	16 (≈ 48.1 µM)
isolate (source animal id): 244	64 (≈ 193 µM)	–
isolate (source animal id): 245	–	32 (≈ 96.3 µM)
isolate (source animal id): 246	64 (≈ 193 µM)	–
isolate (source animal id): 247	64 (≈ 193 µM)	32 (≈ 96.3 µM)
isolate (source animal id): 250	64 (≈ 193 µM)	16 (≈ 48.1 µM)
isolate (source animal id): 252	64 (≈ 193 µM)	–
isolate (source animal id): 254	–	32 (≈ 96.3 µM)
isolate (source animal id): 255	–	32 (≈ 96.3 µM)
isolate (source animal id): 258	–	> 64
isolate (source animal id): 261	–	32 (≈ 96.3 µM)
isolate (source animal id): 262	–	32 (≈ 96.3 µM)
isolate (source animal id): 268	32 (≈ 96.3 µM)	–
isolate (source animal id): 269	–	32 (≈ 96.3 µM)
isolate (source animal id): 270	–	32 (≈ 96.3 µM)
isolate (source animal id): 274	–	32 (≈ 96.3 µM)
isolate (source animal id): 275	–	32 (≈ 96.3 µM)
isolate (source animal id): 276	–	16 (≈ 48.1 µM)
isolate (source animal id): 277	–	32 (≈ 96.3 µM)
isolate (source animal id): 278	–	32 (≈ 96.3 µM)
isolate (source animal id): 279	–	32 (≈ 96.3 µM)
isolate (source animal id): 280	–	32 (≈ 96.3 µM)
isolate (source animal id): 282	16 (≈ 48.1 µM)	–
isolate (source animal id): 284	–	32 (≈ 96.3 µM)
isolate (source animal id): 285	> 64	32 (≈ 96.3 µM)
isolate (source animal id): 287	–	32 (≈ 96.3 µM)
isolate (source animal id): 289	64 (≈ 193 µM)	–
isolate (source animal id): 290	64 (≈ 193 µM)	32 (≈ 96.3 µM)
isolate (source animal id): 294	–	32 (≈ 96.3 µM)
isolate (source animal id): 295	–	16 (≈ 48.1 µM)
isolate (source animal id): 296	64 (≈ 193 µM)	32 (≈ 96.3 µM)
isolate (source animal id): 298	64 (≈ 193 µM)	–
isolate (source animal id): 301	32 (≈ 96.3 µM)	–
isolate (source animal id): 307	–	32 (≈ 96.3 µM)
isolate (source animal id): 310	64 (≈ 193 µM)	32 (≈ 96.3 µM)
isolate (source animal id): 311	–	16 (≈ 48.1 µM)
isolate (source animal id): 312	–	16 (≈ 48.1 µM)
isolate (source animal id): 313	–	16 (≈ 48.1 µM)
isolate (source animal id): 315	–	32 (≈ 96.3 µM)
isolate (source animal id): 316	–	32 (≈ 96.3 µM)
isolate (source animal id): 320	64 (≈ 193 µM)	–
isolate (source animal id): 331	64 (≈ 193 µM)	–
isolate (source animal id): 333	64 (≈ 193 µM)	–
isolate (source animal id): 341	64 (≈ 193 µM)	–

Source: the supplement of paper PMC8612539
